Reference: ChEMBL document CHEMBL5053514, “Synthesis and Anti-Influenza Virus Effects of Novel Substituted Polycyclic Pyridone Derivatives Modified from Baloxavir” (J Med Chem, 2021)
pIC50: −log10 of the molar value.

Legend:
[1] = system: Influenza A virus; assay: Antiviral activity against Influenza A virus (A/Fort Monmouth/1/1947(H1N1)) infected in dog MDCK cells assessed as inhibition of M2 protein measured after 18 hrs by immunofluorescence microscopic analysis; type: functional, organism-based
[2] = Cytotoxicity against MDCK cells assessed as reduction in cell viability measured after 48 hrs by CCK8 assay; type: cell-based, Canis lupus familiaris; settings: dog, read-out: TC50
[3] = Selectivity index, ratio of TC50 for MDCK cells to IC50 for antiviral activity against Influenza A virus (A/Fort Monmouth/1/1947(H1N1)) infected in MDCK cells; type: toxicity, cell-based; settings: dog, read-out: Selectivity Index
[4] = system: HEK293T; assay: Inhibition of Influenza A virus RdRP transfected in HEK293T cells co-transfected with NP/PA/PB1/PB2/pRL-SV40 incubated for 24 hrs by DualGlo-luciferase assay; type: cell-based
[5] = system: HEK293T; assay: Inhibition of Influenza A virus RdRP transfected in HEK293T cells co-transfected with NP/PA/PB1/PB2/pRL-SV40 at 1 nM incubated for 24 hrs by minireplicon based dual luciferase assay relative to control; type: cell-based
[6] = system: Influenza A virus; assay: Antiviral activity against Influenza A virus (A/Fort Monmouth/1/1947(H1N1)) infected in dog MDCK cells assessed as downregulation of M2 mRNA level measured after 2 hrs by qRT-PCR; type: functional, organism-based
[7] = Selectivity index, ratio of TC50 for MDCK cells to IC50 for antiviral activity against Influenza A virus (A/WUHAN/359/1995(H3N2)) infected in MDCK cells; type: toxicity, cell-based; settings: dog, read-out: Selectivity Index
[8] = system: Influenza A virus; assay: Antiviral activity against Influenza A virus (A/Fort Monmouth/1/1947(H1N1)) infected in dog MDCK cells assessed as inhibition of virus-induced cytopathogenicity incubated for 48 hrs; type: functional, organism-based
[9] = system: Influenza A virus; assay: Antiviral activity against Influenza A virus (A/Fort Monmouth/1/1947(H1N1)) infected in dog MDCK cells assessed as inhibition of M2 RNA level at 3 nM measured after 2 hrs by qRT-PCR relative to control; type: functional
[10] = Antiviral activity against Influenza A virus (A/WUHAN/359/1995(H3N2)) infected in dog MDCK cells assessed as inhibition of virus-induced cytopathogenicity incubated for 48 hrs; type: functional, cell-based
[11] = system: MDCK; assay: Cytotoxicity against MDCK cells assessed as reduction in cell viability at 20 uM measured after 48 hrs by CCK8 assay; type: cell-based, Canis lupus familiaris; settings: dog
[12] = Cmax in Sprague-Dawley rat at 5 mg/kg, po measured after 24 hrs by LC-MS/MS analysis; type: ADME, organism-based; parameters: dose 5 mg/kg, time 24 hrs, route po; settings: in vivo
[13] = AUC (0 to infinity) in Sprague-Dawley rat at 5 mg/kg, po measured after 24 hrs by LC-MS/MS analysis; type: ADME, organism-based; parameters: time 24 hrs, dose 5 mg/kg, route po; settings: in vivo
[14] = Clearance in rat liver microsomes in presence of NADPH generating system by LC-MS/MS analysis; type: ADME, Microsome
[15] = Half life in Sprague-Dawley rat at 5 mg/kg, po measured after 24 hrs by LC-MS/MS analysis; type: ADME, organism-based; settings: in vivo
[16] = Clearance in mouse liver microsomes in presence of NADPH generating system by LC-MS/MS analysis; type: ADME, Microsome
[17] = Half life in mouse liver microsomes in presence of NADPH generating system by LC-MS/MS analysis; type: ADME, Microsome
[18] = Clearance in human liver microsomes in presence of NADPH generating system by LC-MS/MS analysis; type: ADME, Microsome
[19] = AUC (0 to t) in Sprague-Dawley rat at 5 mg/kg, po measured after 24 hrs by LC-MS/MS analysis; type: ADME, organism-based; parameters: time 24 hrs, dose 5 mg/kg, route po; settings: in vivo
[20] = Half life in human liver microsomes in presence of NADPH generating system by LC-MS/MS analysis; type: ADME, Microsome
[21] = Half life in rat liver microsomes in presence of NADPH generating system by LC-MS/MS analysis; type: ADME, Microsome
[22] = Tmax in Sprague-Dawley rat at 5 mg/kg, po measured after 24 hrs by LC-MS/MS analysis; type: ADME, organism-based; settings: in vivo
[23] = Oral bioavailability Sprague-Dawley rat at 5 mg/kg measured after 24 hrs by LC-MS/MS analysis; type: ADME, organism-based; settings: in vivo

Row | SMILES | CC50 at 48 h [2] | selectivity ratio [3] | Activity [6] | selectivity ratio [7] | pIC50 [8] | pIC50 [10] | Activity [11] | other results
1 | O=C1c2c(O)c(=O)ccn2N(C2c3ccccc3C=Cc3c(Cl)cccc32)[C@@H]2COCCN12 (mixture of isomers) | 8.53 µM | 14500 | Dose-dependent effect | 16100 | 9.23 | 9.28 |  | Activity [1]: Dose-dependent effect; inhibition [4]: Dose-dependent effect; inhibition [5]: 53.5%; inhibition at 0.003 µM [9]: 76.3%
2 | O=C1c2c(O)c(=O)ccn2N(C2c3ccccc3C=Cc3ccc(F)cc32)[C@@H]2COCCN12 (mixture of isomers) | > 200 µM | > 68700 | Dose-dependent effect | > 113000 | 8.54 | 8.75 | Non-Toxic | 
3 | O=C1c2c(O)c(=O)ccn2N(C2c3ccccc3C=Cc3c(F)cccc32)[C@@H]2COCCN12 (mixture of isomers) | 19.4 µM | 49600 | Dose-dependent effect | 34000 | 9.41 | 9.24 |  | Activity [1]: Dose-dependent effect; inhibition [4]: Dose-dependent effect; inhibition [5]: 48.5%; inhibition at 0.003 µM [9]: 86%
4 | O=C1c2c(O)c(=O)ccn2N(C2c3ccccc3C=Cc3ccc(Cl)cc32)[C@@H]2COCCN12 (mixture of isomers) | 20.1 µM | 1440 |  | 1330 | 7.85 | 7.82 |  | 
5 | O=C1c2c(O)c(=O)ccn2N(C2c3ccccc3C=Cc3cc(Br)ccc32)[C@@H]2COCCN12 (mixture of isomers) | 21.7 µM | 2050 |  | 1440 | 7.97 | 7.82 |  | 
6 | O=C1c2c(O)c(=O)ccn2N(C2c3ccccc3C=Cc3cc(Cl)ccc32)[C@@H]2COCCN12 (mixture of isomers) | 19.2 µM | 2670 |  | 4090 | 8.14 | 8.33 |  | 
7 | O=C1c2c(O)c(=O)ccn2N(C2c3ccccc3C=Cc3cc(F)ccc32)[C@@H]2COCCN12 (mixture of isomers) | 59.5 µM | 117000 | Dose-dependent effect | 72600 | 9.29 | 9.09 | Non-Toxic | 
8 | O=C1c2c(O)c(=O)ccn2N(C2c3ccccc3C=Cc3ccc(Br)cc32)[C@@H]2COCCN12 (mixture of isomers) | > 200 µM | > 10300 |  | > 7490 | 7.71 | 7.57 | Non-Toxic | 
9 | Cc1ccc2c(c1)C(N1[C@@H]3COCCN3C(=O)c3c(O)c(=O)ccn31)c1ccccc1C=C2 (mixture of isomers) | 52.4 µM | 1330 |  | 472 | 7.41 | 6.95 | Non-Toxic | 
10 | O=C1c2c(O)c(=O)ccn2N(C2c3ccccc3C=Cc3ccccc32)[C@@H]2COCCN12 | 189 µM | 450000 | Dose-dependent effect | 497000 | 9.38 | 9.42 | Non-Toxic | Activity [1]: Dose-dependent effect; Cmax [12]: 88.1 ng/mL; AUC(0-inf) [13]: 311 ng·h/mL; CLH [14]: 14.49 microL/ml/min; half-life [15]: 102 min; inhibition [4]: Dose-dependent effect; CLH [16]: 73.9 microL/ml/min; half-life [17]: 1890 min; inhibition [5]: 50%; CLH [18]: 79.04 µmol/min/g; AUC(0-t) at 24 h [19]: 295 ng·h/mL; half-life [20]: 9.23 days; half-life [21]: 3.08 days; Tmax [22]: 49.8 min; bioavailability [23]: 22.9%; inhibition at 0.003 µM [9]: 88.5%
11 | COc1ccc2c(c1)C(N1[C@@H]3COCCN3C(=O)c3c(O)c(=O)ccn31)c1ccccc1C=C2 (mixture of isomers) | > 200 µM | > 711 |  | > 1560 | 6.55 | 6.89 | Non-Toxic | 
